Data from PubChem BioAssay AID248 (DTP/NCI, 2004).
Where “and” joins values, the source holds several entries; their conditions need not be identical. Equal values may be shown once. Inconclusive results and toxic doses are left out. No stated cut-off is given here; in the data, active means T/C of 150% or more; inactive means T/C below 125%.

Test system: L1210 leukemia ip in BDF1 mice, survival T/C
Assay: NCI In Vivo Anticancer Drug Screen. Data for tumor model L1210 Leukemia (intraperitoneal) in B6D2F1 (BDF1) mice
Conditions: endpoint: mean survival time, higher = longer survival
Procedure, shortened: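 Value reflects the ratio of survival in compound-treated mice to survival in vehicle-treated controls, with both groups carrying the same transplanted tumor.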

[1] = dose: 75.0 mg/kg/injection, schedule: Q01DX001 (ip), vehicle: carboxymethylcellulose (CMC)
[2] = dose: 100.0 mg/kg/injection, schedule: Q01DX009 (ip), vehicle: saline with Tween-80
[3] = dose: 100.0 mg/kg/injection, schedule: Q04DX003 (ip), vehicle: saline with Tween-80
[4] = dose: 200.0 mg/kg/injection, schedule: Q01DX009 (ip), vehicle: saline with Tween-80
[5] = dose: 200.0 mg/kg/injection, schedule: Q04DX003 (ip), vehicle: saline with Tween-80
[6] = dose: 400.0 mg/kg/injection, schedule: Q04DX003 (ip), vehicle: saline with Tween-80
[7] = dose: 100.0 mg/kg/injection, schedule: Q01DX009 (ip), vehicle: saline
[8] = dose: 200.0 mg/kg/injection, schedule: Q01DX009 (ip), vehicle: saline
[9] = dose: 50.0 mg/kg/injection, schedule: Q01DX001 (ip), vehicle: saline
[10] = dose: 100.0 mg/kg/injection, schedule: Q01DX001 (ip), vehicle: saline
[11] = dose: 200.0 mg/kg/injection, schedule: Q01DX001 (ip), vehicle: saline
[12] = dose: 400.0 mg/kg/injection, schedule: Q01DX001 (ip), vehicle: saline
[13] = dose: 100.0 mg/kg/injection, schedule: Q01DX001 (ip), vehicle: carboxymethylcellulose (CMC)
[14] = dose: 200.0 mg/kg/injection, schedule: Q01DX001 (ip), vehicle: carboxymethylcellulose (CMC)
[15] = dose: 400.0 mg/kg/injection, schedule: Q01DX001 (ip), vehicle: carboxymethylcellulose (CMC)
[16] = dose: 100.0 mg/kg/injection, schedule: Q01DX009 (ip), vehicle: Klucel (hydroxypropylcellulose) (HPC)
[17] = dose: 100.0 mg/kg/injection, schedule: Q04DX003 (ip), vehicle: Klucel (hydroxypropylcellulose) (HPC)
[18] = dose: 200.0 mg/kg/injection, schedule: Q01DX009 (ip), vehicle: Klucel (hydroxypropylcellulose) (HPC)
[19] = dose: 400.0 mg/kg/injection, schedule: Q01DX009 (ip), vehicle: Klucel (hydroxypropylcellulose) (HPC)

Measured: T/C

CCOP(=O)(OCC)N1CC1c1ccccc1 (stereo unspecified)
inactive: [1] 114 % of control

COc1ccc(Cl)cc1NC(=O)N/N=C(\C)CC(C)C
inactive: [2] 91 % of control | [3] 97 % of control | [4] 91 % of control | [5] 101 % of control | [6] 101 % of control

C[P+](c1ccccc1)(c1ccc(Cl)cc1)c1ccc(Cl)cc1
inactive: dose: 25.0 mg/kg/injection, schedule: Q04DX002 (ip), vehicle: saline 100 % of control | dose: 50.0 mg/kg/injection, schedule: Q04DX002 (ip), vehicle: saline 95 % of control | dose: 100.0 mg/kg/injection, schedule: Q04DX002 (ip), vehicle: saline with Tween-80 116 % of control

Nc1nc(Br)c(Br)nc1N
inactive: [3] 104 % of control | [5] 96 % of control | [6] 93 % of control

Nc1cc(Cl)ccc1S(N)(=O)=O
inactive: [7] 92 % of control | [3] 105 % of control | [8] 100 % of control | [5] 105 % of control | dose: 400.0 mg/kg/injection, schedule: Q01DX009 (ip), vehicle: saline 111 % of control | [6] 108 % of control

O=C(c1cccc([N+](=O)[O-])c1)c1cccc([N+](=O)[O-])c1
inactive: dose: 100.0 mg/kg/injection, schedule: Q01DX001 (ip), vehicle: Klucel (hydroxypropylcellulose) (HPC) 117 % of control | dose: 200.0 mg/kg/injection, schedule: Q01DX001 (ip), vehicle: Klucel (hydroxypropylcellulose) (HPC) 97 % of control | dose: 400.0 mg/kg/injection, schedule: Q01DX001 (ip), vehicle: Klucel (hydroxypropylcellulose) (HPC) 94 % of control

CCCCCCCCCC(CCCCCCCC(=O)O)NC(C)=O (stereo unspecified)
inactive: [9] 97 % of control | [10] 94 % of control | [11] 94 % of control | [12] 94 % of control

C/C=C/C=C/C(=O)N(C)c1ccccc1
inactive: dose: 50.0 mg/kg/injection, schedule: Q01DX001 (ip), vehicle: carboxymethylcellulose (CMC) 111 % of control | [13] 103 % of control | [14] 103 % of control | [15] 100 % of control

Cc1cc(C(=O)C[n+]2ccccc2)c(CN2C(=O)c3ccccc3C2=O)c(=O)n1C
inactive: dose: 100.0 mg/kg/injection, schedule: Q01DX001 (ip), vehicle: water 102 % of control

CCOC(=O)C1=NN(c2ccccc2)C(=O)C1N=Nc1ccc(S(N)(=O)=O)cc1 (stereo unspecified)
inactive: [10] 95 % of control | [11] 93 % of control | [12] 93 % of control

CCCNCC1OC(OC)C2OC(C)(C)OC12 (stereo unspecified)
inactive: dose: 0.78 mg/kg/injection, schedule: Q01DX009 (ip), vehicle: saline 100 % of control | dose: 1.56 mg/kg/injection, schedule: Q01DX009 (ip), vehicle: saline 96 % of control | dose: 3.12 mg/kg/injection, schedule: Q01DX009 (ip), vehicle: saline 98 % of control | dose: 100.0 mg/kg/injection, schedule: Q01DX005 (ip), vehicle: saline 99 % of control | [7] 88 % of control | dose: 200.0 mg/kg/injection, schedule: Q01DX005 (ip), vehicle: saline 106 % of control | [8] 91 % of control

COc1ccc(NC(=O)Oc2ccc3c(C)cc(=O)oc3c2)c(OC)c1
inactive: [2] 106 % of control | [3] 101 % of control | [4] 106 % of control | [5] 116 % of control | dose: 400.0 mg/kg/injection, schedule: Q01DX009 (ip), vehicle: saline with Tween-80 118 % of control | [6] 106 % of control

CC(=O)Nc1c(F)c(F)c(N=Nc2ccccc2)c(F)c1F
inactive: [13] 100 % of control | [14] 102 % of control | [15] 100 % of control

C[Si](C)(C)c1c(F)c(F)cc(F)c1F
inactive: [16] 98 % of control | [17] 98 % of control | [18] 112 % of control | dose: 200.0 mg/kg/injection, schedule: Q04DX003 (ip), vehicle: Klucel (hydroxypropylcellulose) (HPC) 95 % of control | [19] 94 % of control | dose: 400.0 mg/kg/injection, schedule: Q04DX003 (ip), vehicle: Klucel (hydroxypropylcellulose) (HPC) 97 % of control

O=C(Nc1ccc(S(=O)(=O)F)cc1[N+](=O)[O-])c1ccc2ccccc2c1O
inactive: [16] 104 % of control | [18] 96 % of control | [19] 93 % of control

CN(C)/C(N)=N/N
inactive: dose: 15.0 mg/kg/injection, schedule: Q01DX Z (ip), vehicle: methylcellulose (MC) 113 % of control | dose: 30.0 mg/kg/injection, schedule: Q01DX Z (ip), vehicle: methylcellulose (MC) 109 % of control | dose: 60.0 mg/kg/injection, schedule: Q01DX Z (ip), vehicle: methylcellulose (MC) 100 % of control | dose: 120.0 mg/kg/injection, schedule: Q01DX Z (ip), vehicle: methylcellulose (MC) 103 % of control | dose: 125.0 mg/kg/injection, schedule: Q01DX Z (oral), vehicle: methylcellulose (MC) 90 % of control | dose: 240.0 mg/kg/injection, schedule: Q01DX Z (ip), vehicle: methylcellulose (MC) 101 % of control | dose: 250.0 mg/kg/injection, schedule: Q01DX Z (oral), vehicle: methylcellulose (MC) 101 % of control | dose: 375.0 mg/kg/injection, schedule: Q01DX Z (ip), vehicle: methylcellulose (MC) 110 % of control | dose: 480.0 mg/kg/injection, schedule: Q01DX Z (ip), vehicle: methylcellulose (MC) 107 % of control

CCC(CO)(CO)C(=[N-])c1ccccc1O.CCC(CO)(CO)N=Cc1ccccc1O.[Co]
inactive: [9] 98 % of control | [10] 94 % of control | [11] 94 % of control

Nc1ccc([N+](=O)[O-])cc1[N+](=O)[O-]
inactive: dose: 25.0 mg/kg/injection, schedule: Q04DX003 (ip), vehicle: Klucel (hydroxypropylcellulose) (HPC) 103 % of control | dose: 50.0 mg/kg/injection, schedule: Q04DX003 (ip), vehicle: Klucel (hydroxypropylcellulose) (HPC) 98 % of control | [17] 95 % of control and 105 % of control

[O-]/[N+](=N/O)c1ccccc1
inactive: [10] 92 % of control

COS(=O)(=O)c1ccc[n+](C)c1
inactive: [9] 100 % of control | [10] 105 % of control | [11] 98 % of control | [12] 96 % of control

O=C1c2ccccc2C(C(O)(C(F)(F)F)C(F)(F)F)c2ccccc21
inactive: [3] 92 % of control | [5] 97 % of control

S=C(Nc1ccccc1)NC1CCCCCC1
inactive: dose: 50.0 mg/kg/injection, schedule: Q01DX009 (ip), vehicle: saline with Tween-80 98 % of control and 92 % of control | [2] 94 % of control | dose: 100.0 mg/kg/injection, schedule: Q04DX003 (ip), vehicle: saline 97 % of control | [4] 90 % of control | dose: 200.0 mg/kg/injection, schedule: Q04DX003 (ip), vehicle: saline 94 % of control

CCCC[N+](C)(CCCC)CCCC
inactive: dose: 75.0 mg/kg/injection, schedule: Q01DX001 (ip), vehicle: saline 101 % of control

O=C1CC2CCCC(C1)S2
inactive: [1] 107 % of control | dose: 100.0 mg/kg/injection, schedule: Q04DX002 (ip), vehicle: Klucel (hydroxypropylcellulose) (HPC) 86 % of control | dose: 150.0 mg/kg/injection, schedule: Q01DX001 (ip), vehicle: carboxymethylcellulose (CMC) 109 % of control | dose: 200.0 mg/kg/injection, schedule: Q04DX002 (ip), vehicle: Klucel (hydroxypropylcellulose) (HPC) 100 % of control | dose: 300.0 mg/kg/injection, schedule: Q01DX001 (ip), vehicle: carboxymethylcellulose (CMC) 102 % of control | dose: 400.0 mg/kg/injection, schedule: Q04DX002 (ip), vehicle: Klucel (hydroxypropylcellulose) (HPC) 86 % of control

O=C1C=CC(=O)c2nc(-c3ccccn3)c(-c3ccccn3)nc21
inactive: dose: 1.56 mg/kg/injection, schedule: Q04DX003 (ip), vehicle: Klucel (hydroxypropylcellulose) (HPC) 92 % of control | dose: 3.12 mg/kg/injection, schedule: Q04DX003 (ip), vehicle: Klucel (hydroxypropylcellulose) (HPC) 93 % of control | dose: 6.25 mg/kg/injection, schedule: Q04DX003 (ip), vehicle: Klucel (hydroxypropylcellulose) (HPC) 90 % of control | dose: 18.0 mg/kg/injection, schedule: Q01DX009 (ip), vehicle: Klucel (hydroxypropylcellulose) (HPC) 101 % of control | dose: 28.0 mg/kg/injection, schedule: Q01DX009 (ip), vehicle: Klucel (hydroxypropylcellulose) (HPC) 100 % of control | dose: 40.0 mg/kg/injection, schedule: Q01DX009 (ip), vehicle: Klucel (hydroxypropylcellulose) (HPC) 93 % of control

Nc1c(Br)cc2c(c1Br)C(=O)c1ccccc1-2
inactive: [13] 98 % of control | [14] 109 % of control | [15] 102 % of control
